From ChEMBL document CHEMBL1141371, “Cytotoxic 5-alkylresorcinol metabolites from the leaves of Grevillea robusta” (J Nat Prod, 2007)

Legend:
[1] = tested on: MCF7; assay: Cytotoxicity against human MCF7 cells; format: cell-based
[2] = tested on: NCI-H460; assay: Cytotoxicity against human NCI-H460 cells; format: cell-based
[3] = tested on: SF-268; assay: Cytotoxicity against human SF268 cells; format: functional, cell-based

Row | Compound | IC50 [1] [µM] | IC50 [2] [µM] | IC50 [3] [µM]
1 | COc1cc(O)cc(CCCCCCCCCCCCCCc2cc(O)cc(O)c2)c1 [BISGRAVILLOL] | 29.4 | 28.7 | 29.4
2 | Oc1cc(O)c2c(c1)CCCCC/C=C/CCCCCCCc1cc(O)c-2c(O)c1 [DEHYDROGRAVIPHANE] | 30.7 | 25.4 | 33.4
3 | Oc1cc(O)cc(CCCCC/C=C/CCCCCCCc2cc(O)cc(O)c2)c1 | 28.6 | 27.7 | 30.6
4 | Oc1cc(O)cc(CCCCCCCCCCCCCCc2cc(O)cc(O)c2)c1 [BISNORSTRIATOL] | 29.2 | 28.8 | 29.8
5 | Oc1cc(O)c2c(c1)CCCCCCCCCCCCCCc1cc(O)c-2c(O)c1 | 28.6 | 22.8 | 27.7
6 | COc1cc(O)cc2c1-c1c(O)cc(cc1O)CCCCCCCCCCCCCC2 | 30.8 | 28.9 | 31.1
7 | COc1cc(O)cc(CCCCCCC/C=C/CCCCCc2cc(O)cc(O)c2)c1 [DEHYDROBISGRAVILLOL] | 29.8 | 27 | 30.2
8 | Oc1cc2cc(c1)Oc1c(O)cc(cc1O)CCCCCCC/C=C/CCCCC2 [DEHYDROROBUSTOL A] | 31.8 | 28 | 33.1
9 | COc1cc(O)cc2c1-c1c(O)cc(cc1O)CCCCCCC/C=C/CCCCC2 | 29.3 | 27.9 | 29.1
10 | CCCCCCCCCCCCCCCc1cc(O)cc(O)c1 [CARDOL] | 37 | 34.2 | 39.8
11 | Oc1cc2cc(c1)Oc1c(O)cc(cc1O)[C@H](O)CCCCCC/C=C/CCCCC2 [DEHYDROGRAVICYCLE] | 30 | 27.9 | 31.3
12 | Oc1cc2cc(c1)Oc1c(O)cc(cc1O)CCCCCCCCCCCCCC2 [ROBUSTOL] | 32.4 | 24 | 32.7
13 | Oc1cc2cc(c1)Oc1c(O)cc(cc1O)[C@H](O)CCCCCCCCCCCCC2 | 30.6 | 27 | 32.1
